Consider 3 molecules from US20100158866A1, “PREDICTION OF HCV TREATMENT RESPONSE” (priority 2008, published 2010).

Data set [1] is described as follows: Phase 2A clinical trial of RO4588161: premature withdrawal for safety reasons. The data set is classed as in vivo, human. From the text:
(§1) This was a phase 2A, multi-center, randomized, double-blinded (RO4588161 and ribavirin were double-blinded and Pegasys was open labeled), active-controlled, with a parallel-group study which is ongoing. A screening period (time from the first screening assessment to the first administration of test drug) of 35 days preceded the treatment portion of the trial (FIG. 1). The HCV genotype and HCV RNA titer of each patient was confirmed during the screening period and only treatment-naïve patients with HCV genotype-1 and HCV RNA titer […] were eligible for enrollment.
One hundred and seven male and female patients between 18 and 66 years of age were enrolled into the study. Patients were randomized into four treatment groups: • Group A/Dual 1500 [RO4588161 1500 mg oral, twice daily+Pegasys 180 μg subcutaneous, once weeky] for 4 weeks-21 patients, • Group B/Dual 3000 [RO4588161 3000 mg oral, twice daily+Pegasys 180 μg subcutaneous, once weekly] for 4 weeks-34 patients, • Group C/Triple 1500 [RO4588161 1500 mg oral, twice daily+Pegasys 180 μg subcutaneous, once weekly+ribavirin 1000 mg (<75 kg) or 1200 mg […] oral daily] for 4 weeks-31 patients or • Group D/standard of care (SOC) [Pegasys 180 μg subcutaneous, once weekly+ribavirin 1000 mg (<75 kg) or 1200 mg (≧75 kg) oral daily] for 4 weeks-21 patients […]

The test system of data set [2] is HCV genotype 1. Kind of data set: Phase 2A clinical trial of RO4588161 with Pegasys with or without ribavirin: HCV RNA viral load and viral response (Roche COBAS TaqMan HCV Test). The data set is classed as in vivo, human. To be noted: for mean change in viral concentrations (HCV RNA) from baseline at week 4: 4 weeks.
Text: as §1
One hundred and seven male and female patients between 18 and 66 years of age were enrolled into the study. Patients were randomized into four treatment groups: • Group A/Dual 1500 [RO4588161 1500 mg oral, twice daily+Pegasys 180 μg subcutaneous, once weeky] for 4 weeks-21 patients, • Group B/Dual 3000 [RO4588161 3000 mg oral, twice daily+Pegasys 180 μg subcutaneous, once weekly] for 4 weeks-34 patients, • Group C/Triple 1500 [RO4588161 1500 mg oral, twice daily+Pegasys 180 μg subcutaneous, once weekly+ribavirin 1000 mg (<75 kg) or 1200 mg […] oral daily] for 4 weeks-31 patients or • Group D/standard of care (SOC) [Pegasys 180 μg subcutaneous, once weekly+ribavirin 1000 mg (<75 kg) or 1200 mg (≧75 kg) oral daily] for 4 weeks-21 patients
Patients meeting all eligibility criteria were randomized to receive RO4588161 in combination with Pegasys with or without ribavirin for 4 weeks or to SOC.
All patients who received at least one dose of study medication would continue to receive open label Pegasys 180 μg sc qw and ribavirin 1000 mg (<75 kg) or 1200 mg (≧75 kg) po qd to complete a total treatment period of 48 weeks.
Randomization was stratified by the PK subcohort (sparse PK versus intensive PK) in a 2:3:3:2 ratio into the following treatment groups (Group A/Dual 1500˜20, Group B/Dual 3000˜30, Group C/Triple 1500˜30, Group D/SOC˜20).
All patients were to have a safety follow up visit at week 8, 4 weeks after the last dose of the experimental drug combination. Patients were to have this 4 week safety follow up visit during their treatment with the standard of care therapy. Patients who have completed a full 48-week course of therapy were followed for 24 weeks post treatment completion.
Pharmacodynamic analysis included the assessment of serum viral load, and viral response at individual clinical visits and an assessment of antiviral resistance development with RO4588161 given in combination with Pegasys with or without ribavirin in treatment naïve patients with chronic HCV genotype 1 virus infection. Viral response was defined as the percentage of patients with undetectable HCV RNA as measured by the Roche COBAS TaqMan HCV Test (<15 IU/mL). Pharmacodynamic data were presented by listings, summary statistics (including means, medians, standard errors, confidence intervals for means, ranges, coefficients of variation, proportions of patients with response and confidence intervals for proportions) and plots of means over time.
In general terms: Quantitative PCR measures a nucleic acid by following its amplification.

The test system of data set [3] is HCV genotype 1. The data set is described as follows: Phase II clinical trial of RO5024048 with Pegasys and ribavirin: plasma HCV RNA. The data set is classed as in vivo, human. The text has this: Twenty-five (25) patients per Cohort of RO5024048 were enrolled. Twenty (20) patients per cohort received RO5024048 in combination with standard of care (SOC) and five (5) patients per cohort were randomized to receive SOC with a RO5024048 placebo. Patients were screened up to 56 days prior to enrollment. On Day −1, patients visited the clinic for pre-dose assessments. On Day 1, patients received an oral dose of study drug RO5024048 or placebo and Pegasys/ribovarin in the morning with a light meal and at least 240 mL of water.
A majority of dosing occurred on an outpatient basis. Periodically, patients returned to the clinic for study assessments. Early morning on Days 7, 14, 21, and 28, patients were asked to report to the clinic after an overnight fast. Patients received their RO5024048/placebo in combination with Pegasys and Ribovarin with a light meal and 240 mL of water in the morning in the clinic. Patients were followed through Day 56 (28 days after dosing is completed).
After completing four weeks of the combination-dosing regimen followed by at least 4 weeks of SOC dosing (RO5024048 washout), all patients were eligible to receive up to 40 weeks, depending upon genotype, of open label standard of care (SOC) dosing with Pegasys plus ribavirin. Genotype 2 or 3 subjects enrolling in Cohort 4 will receive a total of 24 weeks of Pegasys plus ribovarin. An overview of the study design is outlined in Table 1.

For data set [4] the following is noted: human, in vivo; cited from earlier work.
Another data set concerns HCV. To be noted: cited from earlier work.

On to `CC(C)C(=O)OC[C@@]1(N=[N+]=[N-])O[C@@H](n2ccc(N)nc2=O)[C@H](OC(=O)C(C)C)[C@@H]1OC(=O)C(C)C` [RO4588161, Isobutyric acid (2R,3S,4R,5R)-5-(4-amino-2-oxo-2H-pyrimidin-1-yl)-2-azido-3,4-bis-isobutyryloxy-tetrahydro-furan-2-ylmethyl ester], for which the “patients who prematurely withdrew for safety reasons from the drug” value in data set [1] (among the 104 evaluable patients) worked out at 43 patients. For the same molecule, the “mean change in viral concentrations (HCV RNA) from baseline at week 4” value was −3.6 log10 IU/mL in the data set on HCV genotype 1 [2] (Dual 1500: RO4588161 1500 mg oral twice daily + Pegasys 180 μg sc once weekly) and −5.2 log10 IU/mL with HCV genotype 1 [2] (Triple 1500: RO4588161 1500 mg oral twice daily + Pegasys 180 μg sc once weekly + ribavirin 1000/1200 mg oral daily). For the same molecule, the “difference in mean change in viral concentrations” value in the data set on HCV genotype 1 [2] (Dual 3000 vs Dual 1500, week 4, printed as 'minus 0.9') is reported as 0.9 log10 IU/mL; with HCV genotype 1 [2] (Triple 1500 vs Dual 1500, week 4, printed as 'minus 1.6'), 1.6 log10 IU/mL; in the data set on HCV genotype 1 [2] (Triple 1500 vs SOC, week 4, printed as 'minus 2.8'), 2.8 log10 IU/mL. In the data set with HCV genotype 1 [2] (Triple 1500 group (N=31)), the “patients achieving RVR4 (undetectable HCV RNA at four weeks of treatment)” value is reported as 23 out of the 31. Moreover, the “patients achieving sustained virological response (SVR) at 24 weeks post treatment completion” value in the data set with HCV genotype 1 [2] (Triple 1500 group, of the thirteen patients undetectable at two weeks) is “Eleven”. In addition, in the data set on HCV genotype 1 [2] (Triple 1500 over Dual 1500 and SOC), the “antiviral effect, non-overlapping 95% confidence intervals” value is “superior antiviral effect”. The “decrease in the mean HCV RNA (IU/mL) from baseline at week 4” value with HCV genotype 1 [2] (all RO4588161 containing groups (Dual 1500, Dual 3000, Triple 1500), 4 weeks treatment, treatment-naive HCV genotype-1 patients) was not below 3.6 log10. The “earliest assessment at which declines in HCV RNA were observed, following the first dose” value with HCV genotype 1 [2] (first assessment) stood at 72 h. Moreover, the “plasma viral load following treatment” value with HCV genotype 1 [2] (treatment with RO4588161, Pegasys and ribavirin) is “Dose- and time-dependent decreases”.
As for `CC(C)C(=O)OC[C@H]1O[C@@H](n2ccc(N)nc2=O)[C@](C)(F)[C@@H]1OC(=O)C(C)C` [RO5024048, Isobutyric acid (2R,3R,4R,5R)-5-(4-amino-2-oxo-2H-pyrimidin-1-yl)-4-fluoro-3-isobutyryloxy-4-methyl-tetrahydro-furan-2-ylmethyl ester], the “whether HCV RNA could be detected at Week 8” value with HCV genotype 1 [3] (1500 mg RO5024048 + Pegasys + ribavirin, patients not undetectable until day 17 (FIG. 4) or day 28 (FIG. 5)) is “mixed”. In addition, in the data set with HCV genotype 1 [3] (1500 mg RO5024048 + Pegasys + ribavirin, patients with undetectable HCV RNA at 14 days of treatment (FIG. 3)), the “HCV RNA status on day 56 (Week 8)” value was “all HCV RNA negative”. For the same molecule, the “decreases in plasma viral load” value with HCV genotype 1 [3] (four-week treatment, 1500 mg RO5024048 twice daily with SOC dosing of Pegasys and ribavirin, compared with other dose levels) is listed as “most notable decreases”.
In the case of `NC(=O)c1ncn([C@@H]2O[C@H](CO)[C@@H](O)[C@H]2O)n1` [ribavirin, 1-((2R,3R,4S,5R)-3,4-Dihydroxy-5-hydroxymethyl-tetrahydro-furan-2-yl)-1H-[1,2,4]triazole-3-carboxylic acid amide], in data set [4], the “patients with hemolytic anemia requiring dose reduction or discontinuation of ribavirin therapy” value was 10-20 % of patients. Besides, the “patients in whom serum amino transferase levels are reduced to normal” value in the data set on HCV (monotherapy) is listed as 40 % of patients. For the same molecule, in the data set on HCV (ribavirin monotherapy), the “effect on serum levels of HCV-RNA” value is given as “does not lower”. Also, the “patients who prematurely withdrew for safety reasons from the drug” value in data set [1] (both, human, in vivo, 4 weeks) stood at 5 patients.
